Reference: paper PMC8878324, “Evaluation of New Antimicrobial Agents Based on tris(1H-Indol-3-yl)methylium Salts: Activity, Toxicity, Suppression of Experimental Sepsis in Mice” (Pharmaceuticals, 2022)
Where two headings read alike, the source gives them in different places.

Tests used:
[1] = Cytotoxic activity, MTT assay; assay type: cell-based, human; settings: human, HPF-hTERT
Procedure: (§1) The cytotoxic activity of the compounds was evaluated on the healthy donor (postnatal) human fibroblasts immortalized by transfection of the hTERT gene of the catalytic component of telomerase (hereinafter HPF-hTERT) that were obtained from N.N. Blokhin Russian Cancer Research Center. HFC-hTERT cells were cultured in Dulbecco’s modified medium (DMEM) containing 2 mM of L-glutamine, 10% fetal calf serum, 100 U/mL of penicillin and 100 μg/mL of streptomycin. Incubation was performed in a humidified atmosphere of 5% CO2 at 37 °C. In the experiment, we used cells in the logarithmic growth phase. To study the cytotoxicity of compounds, 190 μL of cell suspension (~2 thousand cells per well) was added to the wells of 96-well plates and incubated for 16 h. On the day of the experiment, serial dilutions of the test compounds were prepared in DMSO (stock solution—10 mM in 100% DMSO). Further dilutions were conducted in a nutrient medium. The final concentrations of compounds in the experiment were in a concentration range from 0.0025 to 50 μM. The final concentration of DMSO was 1% or less. Each concentration was presented in 3 repetitions. […] The cells were incubated with the test compounds for 72 h. After the end of incubation, 20 μL of MTT solution in growth medium (5 mg/mL) was added to the wells. The cells were incubated for 2 h until a purple color developed, after which the culture medium was removed. DMSO was added to the wells, and the sediment was suspended. Optical density was measured with a Thermo Scientific Multiscan FC spectrophotometer at 570 nm. The values of optical density in wells without addition of test compounds (control) were taken as 100% cell survival. The percentage of survival of cells incubated with the test compounds was calculated by dividing the optical density in the corresponding well (average of 3 independent measurements) by the optical density in the control. The concentration of drugs causing 50% cell death (IC50) was evaluated and expressed in μg/mL.

HPF-hTERT = assay: Cytotoxic activity, MTT assay; assay type: cell-based, human; settings: 72 h
Procedure: as §1

S. aureus 10 = assay: Model of staphylococcal sepsis in mice; assay type: in vivo; settings: for Death (%) / Survival Rate (%): 14 days; for Dead animals/survivors: 3 mg/kg
Procedure: To determine the ability of drugs to suppress staphylococcal sepsis, a clinical isolate of S. aureus 10, lacking drug resistance and adapted for use in animals, was used. Animals, divided into several experimental groups, were intravenously infected with a lethal dose of S. aureus (0.1 mL each) (Groups 1–5). […] Along with the testing of compounds of the trisndolylmethylium class, a similar experiment was carried out with levofloxacin, taken as a reference drug for a separate group of animals (Group 4). The control group of animals received an intravenous injection of 5% glucose solution instead of the tested preparations (Group 5). Another control group, which also received a single injection of 5% glucose solution, consisted of animals that were not exposed to infection (Group 6). To study each drug, 110–150 animals were required, which were divided into small subgroups of 10 mice each to test various doses of the compounds studied. The number of dead animals and the time of their death were recorded daily, and the appearance of the animals and their weight were assessed. The duration of the experiment was 14 days.
The study was conducted on adult female SHK mice (18–20 g) obtained from the animal breeding unit of the FMBA (Scientific Center for Biomedical Technologies of the Federal Biomedical Agency, Moscow, Russia). The animals were randomly divided into groups (n = 6 for the study of acute toxicity, n = 10 (or 8) to study the efficacy of suppressing staphylococcal sepsis). The study of the effectiveness of drugs in the treatment of staphylococcal sepsis required the use of 110–175 mice for each drug, 10 animals per group. The animal study was approved by the Ethics of Animal Experimentation of Gause Institute of New Antibiotics (protocol No 13/2019).
The experiment used a strain of S. aureus 10, having no drug resistance and adapted for use in animals. Initially, the 100% lethal dose (LD100) was determined for this pathogen strain in SHK mice, i.e., the dose of the pathogen at which the death of 100% of the animals was recorded. LD100 dose of staphylococcus detected in the experiment was 8.0 × 10^8 CFU/mouse, which was then used for infecting animals.
The chemotherapeutic efficacy of tris(indolyl)methane derivatives was determined in a model of staphylococcal sepsis in mice. Mice of the SHK colony, weighing 18–20 g, were infected intravenously (into the tail vein) with a lethal dose of staphylococcus (0.1 mL of solution). One hour after infection, mice were injected intravenously (0.2 mL of solution each) with the tested tris(indolyl)methane derivatives in the range of doses from 0.1 to 40 mg/kg. For tested drugs, we used solutions prepared in 5% glucose solution. The study of the effectiveness of each drug was conducted on 115–155 mice (10 mice per group). The duration of the experiment was 14 days. The number of dead animals and the time of their death were recorded daily, and the body weight of the animals was recorded three times a week. Their feed intake was monitored, and clinical signs of animal health were assessed daily.
To determine the effectiveness of the tested drugs, 50% effective doses (ED50) were used, which was determined by the Behrens method (frequency accumulation method), as well as by the Litchfield and Wilcoxon method using the StatPlus 2006 software. For all data, the mean and standard deviation were calculated. The differences were defined as significant at p ≤ 0.05.

[2] = 3 mg/kg i.v., Double administration
[3] = Staphylococcus aureus, 10, iv, 1 h
[4] = single i.v. 3.0 mg/kg 1 h after infection
[5] = single i.v. 5.0 mg/kg 1 h after infection
[6] = single i.v. 7.0 mg/kg 1 h after infection
[7] = single i.v. 9.0 mg/kg 1 h after infection
[8] = single i.v. 11.0 mg/kg 1 h after infection
[9] = single i.v. 13.0 mg/kg 1 h after infection
[10] = single i.v. 10.0 mg/kg 1 h after infection
[11] = single i.v. 15.0 mg/kg 1 h after infection
[12] = single i.v. 20.0 mg/kg 1 h after infection
[13] = single i.v. 25.0 mg/kg 1 h after infection
[14] = single i.v. 30.0 mg/kg 1 h after infection
[15] = single i.v. 35.0 mg/kg 1 h after infection
[16] = single i.v. 0.5 mg/kg 1 h after infection
[17] = single i.v. 1.0 mg/kg 1 h after infection
[18] = single i.v. 1.5 mg/kg 1 h after infection
[19] = single i.v. 1.75 mg/kg 1 h after infection
[20] = single i.v. 2.0 mg/kg 1 h after infection
[21] = single i.v. 4.0 mg/kg 1 h after infection
[22] = single i.v. 6.0 mg/kg 1 h after infection

## OCCCCCn1cc([C+](c2cn(CCCCCO)c3ccccc23)c2cn(CCCCCO)c3ccccc23)c2ccccc21.[Cl-] [Compound 1, tris(1-(5-Hydroxypentyl)-1H-indol-3-yl) methylium chloride]
[1]
  IC50 at 72 h: 12.6 µg/mL
HPF-hTERT
  Cytotoxic Activity IC50: 13 µg/mL
S. aureus 10; [2]
  Death (%): 75%
  Survival Rate (%): 25%
S. aureus 10; Double, day 0
  Dead animals/survivors: 0/8
S. aureus 10; Double, day 3
  Dead animals/survivors: 0/8
S. aureus 10; Double, day 4
  Dead animals/survivors: 1/7
S. aureus 10; Double, day 6
  Dead animals/survivors: 3/5
S. aureus 10; Double, day 7
  Dead animals/survivors: 4/4
S. aureus 10; Double, day 8
  Dead animals/survivors: 4/4
S. aureus 10; Double, day 9
  Dead animals/survivors: 5/3
S. aureus 10; Double, day 10
  Dead animals/survivors: 6/2
S. aureus 10; Double, day 12
  Dead animals/survivors: 6/2
S. aureus 10; Double, day 14
  Dead animals/survivors: 6/2
S. aureus 10; One-time, day 0
  Dead animals/survivors: 0/8
S. aureus 10; One-time, day 3
  Dead animals/survivors: 1/7
S. aureus 10; One-time, day 4
  Dead animals/survivors: 2/6
S. aureus 10; One-time, day 6
  Dead animals/survivors: 4/4
S. aureus 10; One-time, day 7
  Dead animals/survivors: 5/3
S. aureus 10; One-time, day 8
  Dead animals/survivors: 5/3
S. aureus 10; One-time, day 9
  Dead animals/survivors: 6/2
S. aureus 10; One-time, day 10
  Dead animals/survivors: 7/1
S. aureus 10; One-time, day 12
  Dead animals/survivors: 7/1
S. aureus 10; One-time, day 14
  Dead animals/survivors: 7/1
S. aureus 10; Three-fold, day 0
  Dead animals/survivors: 0/8
S. aureus 10; Three-fold, day 3
  Dead animals/survivors: 0/8
S. aureus 10; Three-fold, day 4
  Dead animals/survivors: 1/7
S. aureus 10; Three-fold, day 6
  Dead animals/survivors: 2/6
S. aureus 10; Three-fold, day 7
  Dead animals/survivors: 3/5
S. aureus 10; Three-fold, day 8
  Dead animals/survivors: 3/5
S. aureus 10; Three-fold, day 9
  Dead animals/survivors: 4/4
S. aureus 10; Three-fold, day 10
  Dead animals/survivors: 5/3
S. aureus 10; Three-fold, day 12
  Dead animals/survivors: 5/3
S. aureus 10; Three-fold, day 14
  Dead animals/survivors: 5/3
S. aureus 10; [3]
  ED50: 7.6 mg/kg
S. aureus 10; dose of 9–11 mg/kg, single i.v.
  survival rate: ~40%
S. aureus 10; [4]
  Death (%): 87.5%
  Survival Rate (%): 12.5%
S. aureus 10; [5]
  Death (%): 75%
  Survival Rate (%): 25%
S. aureus 10; [6]
  Death (%): 75%
  Survival Rate (%): 25%
S. aureus 10; [7]
  Death (%): 62.5%
  Survival Rate (%): 37.5%
S. aureus 10; [8]
  Death (%): 62.5%
  Survival Rate (%): 37.5%
S. aureus 10; [9]
  Death (%): 75%
  Survival Rate (%): 25%

## CCCn1cc([C+](c2cn(CCC)c3ccccc23)c2cn(C3=C(N)C(=O)NC3=O)c3ccccc23)c2ccccc21.[Cl-] [Compound 2, (1-(4-Amino-2,5-dioxo-2,5-dihydro-1H-pyrrol-3-yl)-1H-indol-3-yl)bis(1-propyl-1H-indol-3-yl) methylium chloride]
[1]
  IC50 at 72 h: 2.77 µg/mL
HPF-hTERT
  Cytotoxic Activity IC50: 2.8 µg/mL
S. aureus 10; [3]
  ED50: 18.3 mg/kg
S. aureus 10; [5]
  Death (%): 80%
  Survival Rate (%): 20%
S. aureus 10; [10]
  Death (%): 70%
  Survival Rate (%): 30%
S. aureus 10; [11]
  Death (%): 60%
  Survival Rate (%): 40%
S. aureus 10; [12]
  Death (%): 40%
  Survival Rate (%): 60%
S. aureus 10; [13]
  Death (%): 40%
  Survival Rate (%): 60%
S. aureus 10; [14]
  Death (%): 20%
  Survival Rate (%): 80%
S. aureus 10; [15]
  Death (%): 30%
  Survival Rate (%): 70%

## CCCn1cc([C+](c2cn(CCC)c3ccccc23)c2cn(C3=C(N(C)C)C(=O)NC3=O)c3ccccc23)c2ccccc21 [Compound 3, 1-(4-Dimethylamino-2,5-dioxo-2,5-dihydro-1H-pyrrol-3-yl) -1H-indol-3-yl) bis(1-propyl-1H-indol-3-yl) methylium chloride]
[1]
  IC50 at 72 h: 0.57 µg/mL
HPF-hTERT
  Cytotoxic Activity IC50: 0.6 µg/mL
S. aureus 10; Staphylococcus aureus, 10, single intravenous administration 1 h after infection, read-out: ED50
  ED50: 1.09 mg/kg
S. aureus 10; experimental group 3
  first mortality, day of the experiment: 6 to 7 days
  last death, day of the experiment: 12 days
S. aureus 10; [16]
  Death (%): 70%
  Survival Rate (%): 30%
S. aureus 10; [17]
  Death (%): 50%
  Survival Rate (%): 50%
S. aureus 10; [18]
  Death (%): 40%
  Survival Rate (%): 60%
S. aureus 10; [19]
  Death (%): 10%
  Survival Rate (%): 90%
S. aureus 10; [20]
  Death (%): 0%
  Survival Rate (%): 100%

## C[C@H]1COc2c(N3CCN(C)CC3)c(F)cc3c(=O)c(C(=O)O)cn1c23 [Levofloxacin, levofloxacin, reference compound]
[1]
  IC50 at 72 h: > 50 µg/mL
S. aureus 10; [3]
  ED50: 3.5 mg/kg
S. aureus 10; [17]
  Death (%): 90%
  Survival Rate (%): 10%
S. aureus 10; [20]
  Death (%): 60%
  Survival Rate (%): 40%
S. aureus 10; [21]
  Death (%): 40%
  Survival Rate (%): 60%
S. aureus 10; [22]
  Death (%): 30%
  Survival Rate (%): 70%
S. aureus 10; single injection
  dose that saved the lives of 50% of infected animals: about 4 mg/kg
